Measurements reported in BindingDB's records for doi:10.7270/Q2XG9T96 (n/a, 1997).

Molecular target: Phosphatidylinositol 4-kinase type 2-alpha (Homo sapiens, UniProt Q9BTU6)
Assay: Inhibition of Phosphatidylinositol 4-kinase of human epidermoid carcinoma A431 cells

Sequence of Phosphatidylinositol 4-kinase type 2-alpha (Q9BTU6 whole entry): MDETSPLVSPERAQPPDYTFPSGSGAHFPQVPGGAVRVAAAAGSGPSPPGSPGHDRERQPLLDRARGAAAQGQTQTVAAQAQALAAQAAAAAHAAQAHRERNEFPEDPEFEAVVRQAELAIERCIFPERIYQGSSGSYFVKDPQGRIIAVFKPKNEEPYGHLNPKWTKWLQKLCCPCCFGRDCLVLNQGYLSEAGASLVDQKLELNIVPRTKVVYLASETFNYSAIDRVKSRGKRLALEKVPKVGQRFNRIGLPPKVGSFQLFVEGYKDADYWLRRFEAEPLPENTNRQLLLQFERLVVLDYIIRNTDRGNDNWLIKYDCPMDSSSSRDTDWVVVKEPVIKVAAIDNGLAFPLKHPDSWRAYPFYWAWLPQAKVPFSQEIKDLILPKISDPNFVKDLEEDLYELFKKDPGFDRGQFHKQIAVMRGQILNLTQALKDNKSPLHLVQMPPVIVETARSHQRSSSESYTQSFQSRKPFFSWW

N=C(N)CCNC(=O)c1c[nH]c2nc(N)nc(O)c12 [ECHIGUANINE A]
IC50: 113 nM
